Measurements published in patent US20180105863A1, “NEURAL STEM CELL THERAPY FOR OBESITY AND DIABETES” (ALBERT EINSTEIN COLLEGE OF MEDICINE, INC., priority 2012, published 2018).

Tested on: hypothalamic Notch signaling
Test: Daily third-ventricle injection of DLL4 in obese mice implanted with DNIκBα-hNSC
Type: in vivo
Protocol: In vivo implantation of hNSC with Notch inhibition counteracts obesity-T2D: Hypothalamic hNSC implantation was performed to investigate whether Notch inhibition could mimic IKKβ/NF-κB inhibition in counteracting obesity and related metabolic disorders. This investigation was also rationalized by the data showing that Notch signaling was robust (indicated by the active form of Notch 1 protein) in Sox2-positie cells of HFD-fed mice but not chow-fed mice (FIG. 7E). In the experiment, C57BL/6 mice received mediobasal hypothalamic injections of GFP-hNSC which carried Notch 1-4 shRNAs vs. control shRNA, and were then maintained on HFD vs. chow feeding. […] Thus, inhibition of Notch signaling can recapitulate the effect of NF-κB inhibition in the NSC implantation with respect to counteraction against HFD-induced obesity and metabolic disorders. Finally, hNSC implantation was employed to assess the IKKβ/NF-κB-Notch connection which was established in vitro. […] Therefore, NSC implantation can, at least, primarily employ neurogenetic program to counteract against metabolic disease, although other associated factors (such as inflammatory changes) probably also participate primarily or secondarily.

Question: Which results are given for “DLL4: Notch protein ligand DLL4, injected daily into the third ventricle”?
Answer: DNIκBα-hNSC induced neurogenesis (data not shown): reversal of ^DNIκBα-hNSC induced neurogenesis; hypothalamic inflammation (data not shown): not an induction of hypothalamic inflammation; anti-obesity effect of DNIκBα-hNSC implantation (mice already obese via chronic HFD feeding): significantly abolished the anti-obesity effect
